Results from patent US20230278958A1 (Merck Patent GmbH, priority 2020, published 2023).

Assays:
YAP-TEAD interaction = assay: SK-HEP-1 reporter assay (8x TEAD responsive elements driving NanoLuc luciferase); format: cell-based; settings: Homo sapiens, SK-HEP1; SK-HEP-1 TEAD-NanoLuc reporter cells, 24 hour incubation, luciferase readout
Description: To identify inhibitors of YAP-TEAD interaction, 8× TEAD responsive elements driving the NanoLuc® luciferase gene were stably integrated into SK-HEP-1 cells (ECACC #: 91091816).
For the assay, cells were treated in duplicates with the test compounds in a 10-point dose, with the top concentration starting at 30 μM (final concentration in assay). After a 24 hour incubation at 37° C., 95% rH, and 5% CO2, a luciferase substrate/lysis reagent mix (NanoGlo™, Promega) was added to the cells, allowing the quantification of cellular luciferase activity.
Cell Media: The cells were cultured in the following media: MEM, +10% FBS, +1× GlutaMAX, +1 mM Sodium-Pyruvate, +100 μM Non-essential amino acids, +0.1 mg/ml Hygromycin. The media used for the assay was: MEM (w/o Phenol Red), +10% FBS, +1× GlutaMAX, +1 mM Sodium-Pyruvate, +100 μM Non-essential amino acids, +0.5% Pen/Strep
(§1) Reagents: The reagents used are listed below:
(§2) Cell culture: The cells were examined using an inverted microscope to check for health and cell density. To dissociate adherent cells, the monolayer of cells was washed once with pre-warmed PBS. After removing the PBS, 3 ml pre-warmed Accutase® was added to a F75 flask, dispersed evenly and the flask was allowed to sit in incubator for ˜4-5 minutes.
(§3) When a single cell suspension was obtained, 7 ml of prewarmed growth media was added and resuspended with the cells. The cell suspension was transferred to a sterile 15 ml conical centrifuge tube, and spun for 5 min at 300×g, RT. The supernatant was discarded and the pellet was resuspended in 10 ml of pre-warmed growth media.
(§4) The total cell count was determined, and 20 μl of the desired cell number was added to each well of a 384 well plate using a Multidrop Combi. The plates were then incubated for 24 hours at 37° C., 95% rH, and 5% CO2.
(§5) Compound treatment: 24 hours after seeding, the cells were treated with compounds.
(§6) A 1:333 dilution of compounds, diluted in DMSO, was made to get a final concentration of 0.3% DMSO per well. To transfer the compounds to the assay plate, 120 nl was shot from Labcyte low dead volume plates to the cell plates containing 20 μl media/well with the ECHO 555 liquid handling system.
(§7) After treatment, the cells were fed with 20 μl fresh pre-warmed assay media using a Multidrop combi.
The assay plates were then incubated for another 24 h at 37° C., 95% rH, and 5% CO2.
Luciferase readout: 24 h after treatment, the plates were taken out of the incubator and were allowed to equilibrate to RT. 30 μl of NanoGlo® reagent was added to the plates in the dark. Plates were shaken for 20 min on a Teleshake (˜1500 rpm) in the dark. The luminescence was then measured using an EnVision microplate reader. The IC50 values were generated using Genedata Screener®.
Experimental data in SK-HEP-1 reporter assay of the compounds shown in Table 1 are shown in Table 2 below and classified in the following groups: […]

NCI-H226 cells = assay: Viability assay in NCI-H226 (Yap-dependent) cells, CyQUANT; format: cell-based; settings: Homo sapiens, 96 hour incubation
Description: (§8) The ability of YAP-TEAD inhibitors to inhibit tumor cell growth was evaluated using two different cell lines: NCI-H226, which is a YAP dependent cell line, and SW620 cells, where YAP and TAZ were knocked out using CRISPR to generate a YAP independent cell line.
(§9) For the assay, cells were treated in duplicates with the test compounds in a 10-point dose, 1:3 dilution steps, with the top concentration starting at 30 μM (final concentration in assay). After a 96 hour incubation at 37° C., 95% rH, and 5% CO2, a cell-permeant DNA-binding dye that stains only healthy cells (CyQUANT®, Promega) was added to the cells, allowing the quantification of cell viability.
(§10) Cell Media: The NCI-H226 cells were cultured in the following media: RPMI 1640, +10% FBS, +1× GlutaMAX, +10 mM HEPES, +0.5% Pen/Strep. The SW620-KO cells were cultured in the following media: DMEM/F-12, +10% FBS, +1× GlutaMAX, +10 mM HEPES, +0.5% Pen/Strep.
as §1
as §2, with “health,” for “health and”, “density, etc.” for “density.”, “Accutase” for “Accutase®”
as §3, §4, §5, §6, §7
(§11) The assay plates were then incubated for 96 h at 37° C., 95% rH, and 5% CO2.
(§12) 96h after treatment 30 μl of CyQuant® reagent was added to the assay plates using a Multidrop combi in the dark. The plates were then incubated for 1 hour at 37° C., 95% rH and 5% CO2. Thereafter, the assay plates were removed from the incubator and allowed to equilibrate to RT for 30 min in the dark without lid. Finally, they were measured using an EnVision microplate reader with a FITC bottom read program.
(§13) Experimental data in the Viability assay of the compounds shown in Table 1 are shown in Table 3 below and classified in the following groups: […]

SW620 Yap KO cells = assay: Viability assay in SW620 Yap KO (Yap independent) cells, CyQUANT; format: cell-based; settings: Homo sapiens, SW-620, SW620 YAP/TAZ knock-out (YAP independent) cells, 96 hour incubation
Description: as §8, §9, §10, §1
as §2, with “health,” for “health and”, “density, etc.” for “density.”, “Accutase” for “Accutase®”
as §3, §4, §5, §6, §7, §11, §12, §13

IC50 (YAP-TEAD interaction) | IC50 (NCI-H226 cells) | IC50 (SW620 Yap KO cells) | melting point | SMILES
100 to 1000 nM | 0.1 to 1 µM | > 10 µM |  | O=C(O)c1ccc2c(c1)c1cc(Cc3ccccc3)ccc1n2-c1ccc(C(F)(F)F)cc1 [Compound 1, 6-benzyl-9-[4-(trifluoromethyl)phenyl]-9H-carbazole-3-carboxylic acid]
1 to 10 nM | 0.001 to 0.1 µM | > 10 µM |  | Cc1cccc2c1c1cc(C(=O)O)ccc1n2-c1ccc(C(F)(F)F)cc1 [Compound 6, 5-methyl-9-[4-(trifluoromethyl)phenyl]-9H-carbazole-3-carboxylic acid]
10 to 100 nM | 0.1 to 1 µM | > 10 µM |  | O=C(O)c1ccc2c(c1)c1ccccc1n2-c1ccc(C(F)(F)F)cc1 [Compound 8, 9-[4-(trifluoromethyl)phenyl]-9H-carbazole-3-carboxylic acid]
1 to 10 nM | 0.001 to 0.1 µM | > 10 µM |  | Cc1ccc2c(c1)c1cc(C(=O)O)ccc1n2-c1ccc(C(F)(F)F)cc1 [Compound 10, 6-methyl-9-[4-(trifluoromethyl)phenyl]-9H-carbazole-3-carboxylic acid]
10 to 100 nM | 0.1 to 1 µM |  | 202 to 204 °C | O=C(O)c1ccc2c(c1)c1cc(F)ccc1n2-c1ccc(C(F)(F)F)cc1 [Compound 11, 6-fluoro-9-[4-(trifluoromethyl)phenyl]-9H-carbazole-3-carboxylic acid]
10 to 100 nM | 0.1 to 1 µM |  | 271 to 272 °C | CC(C)c1ccc2c(c1)c1cc(C(=O)O)ccc1n2-c1ccc(C(F)(F)F)cc1 [Compound 13, 6-(propan-2-yl)-9-[4-(trifluoromethyl)phenyl]-9H-carbazole-3-carboxylic acid]
1 to 10 nM | 0.1 to 1 µM |  | 292 to 294 °C | O=C(O)c1ccc2c(c1)c1cc(C(F)(F)F)ccc1n2-c1ccc(C(F)(F)F)cc1 [Compound 14, 6-(trifluoromethyl)-9-[4-(trifluoromethyl)phenyl]-9H-carbazole-3-carboxylic acid]
10 to 100 nM | 0.001 to 0.1 µM |  | 160 to 162 °C | O=C(O)c1ccc2c(c1)c1nc(C(F)(F)F)ccc1n2-c1ccc(C(F)(F)F)cc1 [Compound 16, 2-(trifluoromethyl)-5-[4-(trifluoromethyl)phenyl]-5H-pyrido[3,2-b]indole-8-carboxylic acid]
1 to 10 nM | 0.001 to 0.1 µM |  | 300 °C | Cc1ccc2c(n1)c1cc(C(=O)O)ccc1n2-c1ccc(C(F)(F)F)cc1 [Compound 17, 2-methyl-5-[4-(trifluoromethyl)phenyl]-5H-pyrido[3,2-b]indole-8-carboxylic acid]
10 to 100 nM | 0.1 to 1 µM |  | 300 °C | O=C(O)c1ccc2c(c1)c1nc(F)ccc1n2-c1ccc(C(F)(F)F)cc1 [Compound 18, 2-fluoro-5-[4-(trifluoromethyl)phenyl]-5H-pyrido[3,2-b]indole-8-carboxylic acid]
1 to 10 nM | 0.1 to 1 µM |  | 245 to 247 °C | COc1ccc2c(n1)c1cc(C(=O)O)ccc1n2-c1ccc(C(F)(F)F)cc1 [Compound 19, 2-methoxy-5-[4-(trifluoromethyl)phenyl]-5H-pyrido[3,2-b]indole-8-carboxylic acid]
10 to 100 nM | 1 to 10 µM |  | 250 to 252 °C | Cc1ccc2c3cc(C(=O)O)ccc3n(-c3ccc(C(F)(F)F)cc3)c2c1 [Compound 20, 7-methyl-9-[4-(trifluoromethyl)phenyl]-9H-carbazole-3-carboxylic acid]
1 to 10 nM | 0.001 to 0.1 µM | 1 to 10 µM | 184 to 186 °C | CNC(=O)c1ccc2c(c1)c1cc(C)ccc1n2-c1ccc(C(F)(F)F)cc1 [Compound 21, N,6-dimethyl-9-[4-(trifluoromethyl)phenyl]-9H-carbazole-3-carboxamide]
10 to 100 nM | 0.001 to 0.1 µM |  | 270 to 272 °C | CNC(=O)c1ccc2c(c1)c1cc(F)ccc1n2-c1ccc(C(F)(F)F)cc1 [Compound 23, 6-fluoro-N-methyl-9-[4-(trifluoromethyl)phenyl]-9H-carbazole-3-carboxamide]
100 to 1000 nM |  |  | 250 to 252 °C | CNC(=O)c1ccc2c(c1)c1nc(F)ccc1n2-c1ccc(C(F)(F)F)cc1 [Compound 25, 2-fluoro-N-methyl-5-[4-(trifluoromethyl)phenyl]-5H-pyrido[3,2-b]indole-8-carboxamide]
10 to 100 nM | 0.1 to 1 µM |  | 230 to 232 °C | CNC(=O)c1ccc2c(c1)c1ccc(C)cc1n2-c1ccc(C(F)(F)F)cc1 [Compound 26, N,7-dimethyl-9-[4-(trifluoromethyl)phenyl]-9H-carbazole-3-carboxamide]
100 to 1000 nM | > 10 µM |  | 225 to 227 °C | CNC(=O)c1ccc2c(c1)c1nc(C(F)(F)F)ccc1n2-c1ccc(C(F)(F)F)cc1 [Compound 29, N-methyl-2-(trifluoromethyl)-5-[4-(trifluoromethyl)phenyl]-5H-pyrido[3,2-b]indole-8-carboxamide]
10 to 100 nM | 1 to 10 µM |  | 242 to 244 °C | CNC(=O)c1ccc2c(c1)c1cc(C(F)(F)F)ccc1n2-c1ccc(C(F)(F)F)cc1 [Compound 30, N-methyl-6-(trifluoromethyl)-9-[4-(trifluoromethyl)phenyl]-9H-carbazole-3-carboxamide]
10 to 100 nM | 0.001 to 0.1 µM |  | 270 to 272 °C | CNC(=O)c1ccc2c(c1)c1cc(C#N)ccc1n2-c1ccc(C(F)(F)F)cc1 [Compound 33, 6-cyano-N-methyl-9-[4-(trifluoromethyl)phenyl]-9H-carbazole-3-carboxamide]
100 to 1000 nM |  |  | 195 to 200 °C | O=C(O)c1cc2c3cccnc3n(Cc3ccc(C(F)(F)F)cc3)c2cn1 [Compound 34, 8-{[4-(trifluoromethyl)phenyl]methyl}-5,8,10-triazatricyclo[7.4.0.0^2,^7]trideca-1(9),2,4,6,10,12-hexaene-4-carboxylic acid]
10 to 100 nM | 0.1 to 1 µM |  | 185 to 188 °C | O=C(O)c1cc2c3cccnc3n(-c3ccc(C(F)(F)F)cc3)c2cn1 [Compound 35, 8-[4-(trifluoromethyl)phenyl]-5,8,10-triazatricyclo[7.4.0.0^2,^7]trideca-1(9),2,4,6,10,12-hexaene-4-carboxylic acid]
